We go through one substance from patent publication US20250114431A1, “COMPOUND, COMPOSITION AND METHODS FOR LOWERING CIRCULATING GLUCOSE” (THE HONG KONG POLYTECHNIC UNIVERSITY, priority 2023, published 2025).

This assay deals with MIN6 pancreatic beta cells. The assay can be described thus: Glucose stimulated insulin secretion assay in MIN6 cells (mouse insulin ELISA). Type of assay: cell-based. The following applies: 100 nM, positive control; FIG. 5A. Here is the method: To verify that the glucose homeostasis is regulated through liver or hepatocytes by overexpression of Plac9 in an insulin-independent manner, an in vitro insulin secretion assay was performed on confluent pancreatic beta cells, MIN6, in each well treated by […] of Exendin-4 or different concentrations of recombinant Plac9 of mouse origin at 10, 100 and 1000 nM (n=8) and measured the insulin content of each well by a mouse insulin ELISA kit. […] A glucose uptake assay was performed on primary hepatocytes and hepatic cell line, HepG2, treated with different concentrations (from 0.125 or 0.25 to 1.0 μM) in the presence or absence of exogenous 10 nM insulin, and the results are shown in FIGS. 5B and 5C, respectively.
(ELISA stands for enzyme-linked immunosorbent assay.)

With Exendin-4 [reference compound], the insulin secretion entry is given as “significantly induces insulin secretion”.
